The text below walks through data of patent US12540129B2, “KIF18A inhibitors” (AMGEN INC., priority 2019, dated 2026).

This assay deals with T1, Recombinant human KIF18A (1-467 His-tagged) protein (Homo sapiens, UniProt Q8NI77).
T1 construct: Recombinant human KIF18A (1-467 His-tagged) protein; His; made in house
T1 sequence (Q8NI77 1-467): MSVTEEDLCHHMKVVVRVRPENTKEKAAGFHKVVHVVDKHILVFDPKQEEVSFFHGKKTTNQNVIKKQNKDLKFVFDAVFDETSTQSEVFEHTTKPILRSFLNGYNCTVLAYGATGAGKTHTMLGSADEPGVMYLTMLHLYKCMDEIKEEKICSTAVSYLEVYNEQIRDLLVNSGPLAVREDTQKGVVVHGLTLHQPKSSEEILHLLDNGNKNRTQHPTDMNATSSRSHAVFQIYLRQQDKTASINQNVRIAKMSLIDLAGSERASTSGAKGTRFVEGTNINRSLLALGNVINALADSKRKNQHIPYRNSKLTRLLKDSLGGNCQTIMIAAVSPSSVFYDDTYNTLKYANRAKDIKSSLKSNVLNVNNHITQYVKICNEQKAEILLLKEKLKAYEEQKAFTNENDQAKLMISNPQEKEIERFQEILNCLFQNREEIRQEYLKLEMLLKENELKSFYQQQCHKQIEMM
T1 sequence (P02550 whole entry partner): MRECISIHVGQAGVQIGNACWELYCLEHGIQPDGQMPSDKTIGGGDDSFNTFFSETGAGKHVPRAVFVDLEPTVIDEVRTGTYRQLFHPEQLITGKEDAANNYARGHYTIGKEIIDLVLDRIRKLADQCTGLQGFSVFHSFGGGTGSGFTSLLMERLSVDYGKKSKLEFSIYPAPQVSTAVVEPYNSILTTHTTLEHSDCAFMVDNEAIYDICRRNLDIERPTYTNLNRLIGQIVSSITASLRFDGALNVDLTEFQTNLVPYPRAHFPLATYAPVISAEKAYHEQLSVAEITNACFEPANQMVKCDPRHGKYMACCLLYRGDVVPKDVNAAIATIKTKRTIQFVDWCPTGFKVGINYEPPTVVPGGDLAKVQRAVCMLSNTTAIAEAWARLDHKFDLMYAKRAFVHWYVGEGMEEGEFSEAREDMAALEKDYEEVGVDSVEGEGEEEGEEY
T1 sequence (P02554 whole entry partner): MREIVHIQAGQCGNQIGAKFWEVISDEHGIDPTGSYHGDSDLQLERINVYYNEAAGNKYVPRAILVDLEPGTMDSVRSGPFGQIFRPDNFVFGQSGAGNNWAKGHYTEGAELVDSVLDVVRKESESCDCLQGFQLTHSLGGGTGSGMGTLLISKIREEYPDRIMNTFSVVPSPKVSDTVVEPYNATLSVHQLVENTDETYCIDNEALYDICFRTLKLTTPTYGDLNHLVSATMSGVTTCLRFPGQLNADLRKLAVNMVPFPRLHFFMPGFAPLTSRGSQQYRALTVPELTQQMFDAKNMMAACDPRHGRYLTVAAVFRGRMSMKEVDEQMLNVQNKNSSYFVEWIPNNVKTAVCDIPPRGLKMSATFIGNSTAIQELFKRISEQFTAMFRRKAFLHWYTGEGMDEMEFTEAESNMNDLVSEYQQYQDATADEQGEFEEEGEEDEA
The assay can be described thus: KIF18A Enzyme Assay: microtubule-stimulated ATPase activity (ADP-Glo). The class given is biochemical. The note with it: 30 nM KIF18A, 75 μM ATP. From the text:
KIF18A Enzyme Assay: Microtubule-stimulated ATPase activity assay is used to measure KIF18A enzyme activity after treatment with compound. Compounds were 2-fold serially diluted in DMSO (Sigma Inc) over 22-point concentration range. Recombinant human KIF18A (1-467 His-tagged) protein was expressed using a baculovirus system and purified by affinity chromatography by Amgen Inc. Concentrations of KIF18A protein, microtubules (MT), and ATP in the reaction were optimized for standardized homogenous enzyme assay using ADP-Glorm Kinase/ATPase Assay Kit (Promega Inc). The assay measures ADP formed from the ATPase reaction. […] Read luminescence using EnVision microplate reader with ultra-luminescence module (Perkin Elmer Inc). Concentration-response curve-fitting and IC50 determination was performed using Genedata Screener Software (Standard 15.0.1, Genedata Inc) with a four-parameter logistic regression fit model.
Table A provides data for compounds exemplified in the present application and priority document thereof, as representative compounds of the present invention, as follows: chemical name (as named by either ACD software or ChemDraw (Professional 15.0)) and biological data (IC50 in μM). Ex. # refers to Example No.
On to `CC(C)(C)NS(=O)(=O)c1cccc(NC(=O)c2ccc([C@](C)(O)C(F)(F)F)nc2N2CCC3(CC2)CC3)c1` (single isomer, unassigned) [Example 107-1], for which the IC50 turned out to be 0.07 µM.

With `CC(C)(C)NS(=O)(=O)c1cccc(NC(=O)c2ccc([C@@](C)(O)C(F)(F)F)nc2N2CCC3(CC2)CC3)c1` (single isomer, unassigned) [Example 107-2], the IC50 was 0.097 µM. Regarding `CC(C)(C)NS(=O)(=O)c1cccc(NC(=O)c2ccc([C@](C)(O)CO)nc2N2CCC3(CC2)CC3)c1` (single isomer, unassigned) [Example 109-1], the IC50 stood at 0.087 µM. The value for `CC(C)(C)NS(=O)(=O)c1cccc(NC(=O)c2ccc([C@@](C)(O)CO)nc2N2CCC3(CC2)CC3)c1` (single isomer, unassigned) [Example 109-2] was 0.065 µM; that for `CC1(C)CCN(c2ncccc2C(=O)Nc2cccc(S(=O)(=O)N3CCCCC3)c2)CC1` [Example 100, 2-(4,4-Dimethylpiperidin-1-yl)-N-(3-(piperidin-1-ylsulfonyl)phenyl)nicotinamide] was 0.553 µM. The value for `O=C(Nc1cccc(S(=O)(=O)N2CCCCC2)c1)c1cccnc1N1CCC2(CC1)CC2` [Example 100-1, N-(3-(piperidin-1-ylsulfonyl)phenyl)-2-(6-azaspiro[2.5]octan-6-yl)nicotinamide] was 0.342 µM; that for `CCC1CCN(c2ncccc2C(=O)Nc2cccc(S(=O)(=O)N3CCCCC3)c2)CC1` [Example 100-2, 2-(4-ethylpiperidin-1-yl)-N-(3-(piperidin-1-ylsulfonyl)phenyl)nicotinamide] was 0.983 µM. Turning to `CCCC1CCN(c2ncccc2C(=O)Nc2cccc(S(=O)(=O)N3CCCCC3)c2)CC1` [Example 100-3, N-(3-(piperidin-1-ylsulfonyl)phenyl)-2-(4-propylpiperidin-1-yl)nicotinamide], the IC50 worked out at 0.656 µM. For `O=C(Nc1cccc(S(=O)(=O)N2CCCCC2)c1)c1cccnc1N1CCC2(CCC2)CC1` [Example 100-4, N-(3-(piperidin-1-ylsulfonyl)phenyl)-2-(7-azaspiro[3.5]nonan-7-yl)nicotinamide] the value was 0.217 µM; for `O=C(Nc1cccc(S(=O)(=O)N2CCC(F)CC2)c1)c1cccnc1N1CCC2(CCC2)CC1` [Example 100-5, N-(3-((4-fluoropiperidin-1-yl)sulfonyl)phenyl)-2-(7-azaspiro[3.5]nonan-7-yl)nicotinamide], 0.16 µM. As to `O=C(Nc1cccc(S(=O)(=O)N2CCC(F)(F)CC2)c1)c1cccnc1N1CCC2(CCC2)CC1` [Example 100-6, N-(3-((4,4-difluoropiperidin-1-yl)sulfonyl)phenyl)-2-(7-azaspiro[3.5]nonan-7-yl)nicotinamide], the IC50 was found to be 0.09 µM.

For the compound `O=C(Nc1cccc(S(=O)(=O)N2CCC(F)(F)CC2)c1)c1cccnc1N1CCC2(CC1)CC2` [Example 100-7, N-(3-((4,4-difluoropiperidin-1-yl)sulfonyl)phenyl)-2-(6-azaspiro[2.5]octan-6-yl)nicotinamide], the IC50 amounted to 0.104 µM. The value for `O=C(Nc1cccc(S(=O)(=O)N2CCC(F)CC2)c1)c1cccnc1N1CCC2(CC1)CC2` [Example 100-8, N-(3-((4-fluoropiperidin-1-yl)sulfonyl)phenyl)-2-(6-azaspiro[2.5]octan-6-yl)nicotinamide] was 0.259 µM.

In the case of `Cc1ccc(NC(=O)c2cccnc2N2CCC(C)(C)CC2)cc1S(=O)(=O)N1CCCCC1` [Example 100-9, 2-(4,4-dimethylpiperidin-1-yl)-N-(4-methyl-3-(piperidin-1-ylsulfonyl)phenyl)nicotinamide], the IC50 worked out at 0.282 µM. The value for `Cc1ccc(NC(=O)c2cccnc2N2CCC3(CC2)CC3)cc1S(=O)(=O)N1CCCCC1` [Example 100-10, N-(4-methyl-3-(piperidin-1-ylsulfonyl)phenyl)-2-(6-azaspiro[2.5]octan-6-yl)nicotinamide] was 0.211 µM. In the case of `CC(C)NS(=O)(=O)c1cccc(NC(=O)c2cccnc2N2CCC3(CC2)CC3)c1` [Example 100-11, N-(3-(N-isopropylsulfamoyl)phenyl)-2-(6-azaspiro[2.5]octan-6-yl)nicotinamide], the IC50 came out at 0.934 µM. The value for `CC(C)(C)NS(=O)(=O)c1cccc(NC(=O)c2cccnc2N2CCC3(CC2)CC3)c1` [Example 100-12, N-(3-(N-(tert-butyl)sulfamoyl)phenyl)-2-(6-azaspiro[2.5]octan-6-yl)nicotinamide] was 0.175 µM. For `Cc1ccc(NC(=O)c2cccnc2N2CCC3(CC2)CC3)cc1S(=O)(=O)NC1CC1` [Example 100-13, N-(3-(N-cyclopropylsulfamoyl)-4-methylphenyl)-2-(6-azaspiro[2.5]octan-6-yl)nicotinamide] the value was 0.712 µM; for `O=C(Nc1cccc(S(=O)(=O)C2CCCC2)c1)c1cccnc1N1CCC2(CC1)CC2` [Example 100-14, N-(3-(cyclopentylsulfonyl)phenyl)-2-(6-azaspiro[2.5]octan-6-yl)nicotinamide], 0.287 µM. The value for `CCC1CCN(c2ncccc2C(=O)Nc2cccc(S(=O)(=O)C3CCCC3)c2)CC1` [Example 100-15, N-(3-(cyclopentylsulfonyl)phenyl)-2-(4-ethylpiperidin-1-yl)nicotinamide] was 0.85 µM; that for `CCC1(C)CCN(c2ncccc2C(=O)Nc2cccc(S(=O)(=O)C3CCCC3)c2)CC1` [Example 100-16, N-(3-(cyclopentylsulfonyl)phenyl)-2-(4-ethyl-4-methylpiperidin-1-yl)nicotinamide] was 1.01 µM. With `CCCC1CCN(c2ncccc2C(=O)Nc2cccc(S(=O)(=O)C3CCCC3)c2)CC1` [Example 100-17, N-(3-(cyclopentylsulfonyl)phenyl)-2-(4-propylpiperidin-1-yl)nicotinamide], the IC50 turned out to be 0.778 µM. On to `O=C(Nc1cccc(S(=O)(=O)C2CCCC2)c1)c1cccnc1N1CCC2(CCC2)CC1` [Example 100-18, N-(3-(cyclopentylsulfonyl)phenyl)-2-(7-azaspiro[3.5]nonan-7-yl)nicotinamide], for which the IC50 was found to be 0.134 µM. For `O=C(Nc1cccc(S(=O)(=O)C2CCCC2)c1)c1cccnc1N1CCC2(CC1)CC(F)(F)C2` [Example 100-19, N-(3-(cyclopentylsulfonyl)phenyl)-2-(2,2-difluoro-7-azaspiro[3.5]nonan-7-yl)nicotinamide] the value was 0.734 µM; for `Cc1ccc(NC(=O)c2cccnc2N2CCC3(CC2)CC3)cc1S(=O)(=O)C1CCCC1` [Example 100-20, N-(3-(cyclopentylsulfonyl)-4-methylphenyl)-2-(6-azaspiro[2.5]octan-6-yl)nicotinamide], 0.279 µM; for `O=C(Nc1cccc(S(=O)(=O)C2CCCC2)c1F)c1cccnc1N1CCC2(CC1)CC2` [Example 100-21, N-(3-(cyclopentylsulfonyl)-2-fluorophenyl)-2-(6-azaspiro[2.5]octan-6-yl)nicotinamide], 0.76 µM. The value for `O=C(Nc1cccc(S(=O)(=O)CC2CC2)c1)c1cccnc1N1CCC2(CC1)CC2` [Example 100-22, N-(3-((cyclopropylmethyl)sulfonyl)phenyl)-2-(6-azaspiro[2.5]octan-6-yl)nicotinamide] was 0.91 µM; that for `O=C(Nc1cccc(S(=O)(=O)C2CCCCC2)c1)c1cccnc1N1CCC2(CC1)CC2` [Example 100-23, N-(3-(cyclohexylsulfonyl)phenyl)-2-(6-azaspiro[2.5]octan-6-yl)nicotinamide] was 0.61 µM; that for `O=C(Nc1cccc(S(=O)(=O)C2CCC2)c1)c1cccnc1N1CCC2(CC1)CC2` [Example 100-24, N-(3-(cyclobutylsulfonyl)phenyl)-2-(6-azaspiro[2.5]octan-6-yl)nicotinamide] was 0.923 µM. The value for `O=C(Nc1cccc(S(=O)(=O)NC2CC2)c1)c1cccnc1N1CCC2(CC1)CC2` [Example 101, N-(3-(N-cyclopropylsulfamoyl)phenyl)-2-(6-azaspiro[2.5]octan-6-yl)nicotinamide] was 0.517 µM. Take `O=C(Nc1cccc(S(=O)(=O)NC2CCC2)c1)c1cccnc1N1CCC2(CC1)CC2` [Example 101-1, N-(3-(N-cyclobutylsulfamoyl)phenyl)-2-(6-azaspiro[2.5]octan-6-yl)nicotinamide]: the IC50 turned out to be 0.323 µM. The value for `CN(C1CCC1)S(=O)(=O)c1cccc(NC(=O)c2cccnc2N2CCC3(CC2)CC3)c1` [Example 101-2, N-(3-(N-cyclobutyl-N-methylsulfamoyl)phenyl)-2-(6-azaspiro[2.5]octan-6-yl)nicotinamide] was 0.61 µM; that for `CC1(NS(=O)(=O)c2cccc(NC(=O)c3cccnc3N3CCC4(CC3)CC4)c2)CCC1` [Example 101-3, N-(3-(N-(1-methylcyclobutyl)sulfamoyl)phenyl)-2-(6-azaspiro[2.5]octan-6-yl)nicotinamide] was 0.189 µM. On to `O=C(Nc1cccc(S(=O)(=O)NC2CCCCC2)c1)c1cccnc1N1CCC2(CC1)CC2` [Example 101-4, N-(3-(N-cyclohexylsulfamoyl)phenyl)-2-(6-azaspiro[2.5]octan-6-yl)nicotinamide], for which the IC50 was determined as 0.918 µM.

Turning to `O=C(Nc1cccc(S(=O)(=O)N2CC(F)(F)C2)c1)c1cccnc1N1CCC2(CC1)CC2` [Example 101-5, N-(3-((3,3-difluoroazetidin-1-yl)sulfonyl)phenyl)-2-(6-azaspiro[2.5]octan-6-yl)nicotinamide], the IC50 is 0.401 µM.
